Data as given in patent US4151041A, “Process for production of maltopentaose and maltohexaose” (Meiji Seika Kaisha, Ltd., priority 1976, dated 1979).

Tests used:
[1] = system: mice infected with ascites tumor of "Sarcoma 180"; assay: cellular immunity test according to the delayed skin reaction technique; assay type: in vivo, ICR-JCL mice (male); conditions: for adjuvant effect on immuno-potentiating activity of SF-1130-x substance: with SF-1130-x substance
Description: The test was carried out by the following procedure: A group of ICR-JCL mice (male) having an average body weight of 31.58±4g (8 weeks old) (six mice per group) were inoculated with ascites tumor of "Sarcoma 180". 24 hours after the inoculation of the tumor cells, each of the drug samples to be tested was subcutaneously administered once into the mice. Two days after the inoculation an ethanolic solution of 5% picryl chloride was applied to the hair-shaved abdomens of mice to establish the sensitization. Subsequently, each drug sample under test was subcutaneously administered once a day for four successive days. Nine days after the inoculation, a solution of 1% picryl chloride in olive oil was applied to the two sides of both ears of mice to establish the secondary sensitization. 24 hours after the secondary sensitization, the degree (%) of increase in thickness of the ears was evaluated for the test mice. The extent of the delayed skin reaction can be assessed from the percentage increase.

[2] = system: test microorganism; assay: paper disc-plate method, test microorganisms in general; assay type: cell-based; conditions: for effect on antibacterial activity of the SF-1130-x2 substance: 1.25 mg/cc in upper plate layer, with SF-1130-x2; for antibacterial activity in themselves: alone, under the Table 4 testing conditions; for effect on antibacterial activity of the SF-1130-x1 substance: in combination with SF-1130-x1; for effect on antibacterial activity of the SF-1130-x substance: with SF-1130-x substance
Description: The test was conducted by a conventional paper disc-plate method. Thus, the SF-1130-x2 substance was dissolved in distilled water at a concentration of 1 mg/cc or 2 mg/cc, and with the test solutions so prepared were impregnated paper discs made of filter paper 8 mm in diameter which were subsequently air-dried. These paper discs were placed on an upper plate layer of the known mycin-assay incubation medium comprising 0.5% peptone, 0.3% meat extract and 1.5% agar (pH 6) which contained the test microorganism to be incubated therein and which was laid over the lower layer of agar medium in the assaying dish. The incubation was made at a temperature of 37° C. overnight, and subsequently the diameters of the inhibition zones formed around the paper discs were measured. These tests were repeated in the same manner as above but with the additional incorporation of 1.25 mg/cc of maltopentaose or maltohexaose into the upper plate layer of the micin-assay incubation medium. […] Control testing was also conducted in which the antibacterial potency of the SF-1130-x2 substance alone was estimated in the absence of maltopentaose or maltohexaose.

[3] = system: Klebsiella pneumoniae; assay: paper disc-plate method, combination with SF-1130-x1 substance; assay type: cell-based; conditions: in combination with SF-1130-x1, Klebsiella pneumoniae
[4] = system: Staphylococcus aureus Smith S-424; assay: host-defense stimulation in JCL-ICR mice against bacterial infection (survival, LD50 of bacteria); assay type: in vivo; conditions: living animals
Description: The test was conducted as follows: The crude, yellowish brown powder obtained in Example 1 was reprecipitated from water-ethanol and the reprecipitate was dissolved in a phosphate-buffered saline at ph 7.2. The resultant solution containing a mixture of maltopentaose and maltohexaose was intraperitoneally administered into a group of JCL-ICR mice (male) having an average body weight of 20g (4 weeks old) (eight mice per group) at a dosage of 100 mg/kg body or 20 mg/kg body. The administration was effected three times at an interval of 48 hours.
72 hours after the final administration, the mice were intraperitoneally inoculated with 0.5 ml/mouse of a cell dispersion of Staphylococcus aureus Smith S-424 strain which had been prepared by dilution of the incubated culture with physiological saline solution followed by addition of 5% mucin. The number of the mice that survived was counted during five days after the inoculation and the LD50 value of the bacterial cells (the number of the bacterial cells necessary to kill 50% of mice) calculated in each case. Control testing was also conducted where the treatment with the mixture of maltopentaose and maltohexaose was omitted.

[5] = in vitro antimicrobial / antibacterial activity (general statement); assay type: cell-based; conditions: for in vitro antimicrobial activity: in themselves
[6] = solubility; assay type: physicochemical

Compound | Degree of increase in thickness (ears) ([1]; 200 mg/kg body, subcutaneous) | Percentage increase ([1]; 200 mg/kg body, subcutaneous, Control = 100.0) [%] | adjuvant effect on immuno-potentiating activity of SF-1130-x substance [1] | effect on antibacterial activity of the SF-1130-x2 substance [2] | antibacterial activity in themselves [2] | effect on antibacterial activity of the SF-1130-x1 substance [2] | effect on antibacterial activity of the SF-1130-x substance [2] | effect on antibacterial activity of the SF-1130-x1 substance [3] | effect on host-defense system against bacterial infection [4] | in vitro antibacterial activity [5] | in vitro antimicrobial activity [5] | solubility in acetone [6] | solubility in ethanol [6] | solubility in water [6]
OC[C@H]1O[C@H](O[C@H]2[C@H](O)[C@@H](O)[C@@H](O[C@H]3[C@H](O)[C@@H](O)[C@@H](O[C@H]4[C@H](O)[C@@H](O)[C@@H](O[C@H]5[C@H](O)[C@@H](O)[C@@H](O[C@H]6[C@H](O)[C@@H](O)C(O)O[C@@H]6CO)O[C@@H]5CO)O[C@@H]4CO)O[C@@H]3CO)O[C@@H]2CO)[C@H](O)[C@@H](O)[C@@H]1O (some centres unmarked) [maltohexaose] | 4.7 ± 0.988 ×10^ -3 cm | 87.0 | adjuvant effect of increasing the immuno-potentiating activity | improves the antibacterial activity | no antibacterial activity | generally improves the antibacterial activity | improving the antibacterial activity | improvement in the antibacterial activity is not observed | may stimulate the host-defense system | no in vitro antibacterial activity | no in vitro antimicrobial activity | insoluble | insoluble | readily soluble
OC[C@H]1O[C@H](O[C@H]2[C@H](O)[C@@H](O)[C@@H](O[C@H]3[C@H](O)[C@@H](O)[C@@H](O[C@H]4[C@H](O)[C@@H](O)[C@@H](O[C@H]5[C@H](O)[C@@H](O)C(O)O[C@@H]5CO)O[C@@H]4CO)O[C@@H]3CO)O[C@@H]2CO)[C@H](O)[C@@H](O)[C@@H]1O (some centres unmarked) [maltopentaose] | – | – | adjuvant effect of increasing the immuno-potentiating activity | improves the antibacterial activity | no antibacterial activity | generally improves the antibacterial activity | improving the antibacterial activity | improvement in the antibacterial activity is not observed | may stimulate the host-defense system | no in vitro antibacterial activity | no in vitro antimicrobial activity | insoluble | insoluble | readily soluble
